# Test results reported in ChEMBL document CHEMBL1143157, “New fused benzazepine as selective D3 receptor antagonists. Synthesis and biological evaluation. Part 2: [g]-fused and hetero-fused systems” (Bioorg Med Chem Lett, 2008).
# Tests used:
# in vivo [1] = settings: rat, brain and blood, iv
# in vivo [2] = settings: rat, whole blood
# in vivo [3] = settings: rat
# in vivo [4] = settings: rat, po
# in vivo [5] = settings: rat; remark: listed apart in the source
Structure (SMILES),Kp at 1 h (in vivo [1]),clearance (in vivo [2]) [mL/min/kg],Vd (in vivo [3]) [L/kg],bioavailability (in vivo [4]) [%],half-life (in vivo [5]) [h]
Cc1ccc2c(-c3nnc(SCCCN4CCc5ccc6nc(C(C)(F)F)oc6c5CC4)n3C)cccc2n1,4,43,3.31,8,
Cc1ncoc1-c1nnc(SCCCN2CCc3ccc4oc(C(F)(F)F)nc4c3CC2)n1C,0.8,35,1.6,63,0.6
Cc1ccc2c(-c3nnc(SCCCN4CCc5ccc6oc(C)nc6c5CC4)n3C)cccc2n1,2.5,48,,15,1.7
CCc1nc2c3c(ccc2o1)CCN(CCCSc1nnc(-c2ocnc2C)n1C)CC3,0.1,5,0.61,73,1.9
Cc1ncoc1-c1nnc(SCCCN2CCc3ccc4oc(C(C)(F)F)nc4c3CC2)n1C,0.2,9,0.8,54,1.2
